Where two headings read alike, the source gives them in different places.
Key:
[1] = tested on: MDA-MB-361-DYT2 (breast cancer) cells; test: In vitro cell assay (MTS cell viability), MDA-MB-361-DYT2; assay type: cell-based; details: free compounds, 96 hours after treatment
Protocol: (§1) In Vitro Cell Assay Procedure
(§2) Target expressing (BT474 (breast cancer), N87 (gastric cancer), HCC1954 (breast cancer), MDA-MB-361-DYT2 (breast cancer)) or non-expressing (HT-29) cells were seeded in 96-well cell culture plates for 24 hours before treatment. Cells were treated with 3-fold serially diluted antibody-drug conjugates or free compounds (i. e. no antibody conjugated to the drug) in duplicate at 10 concentrations. Cell viability was determined by CellTiter 96® AQueous One Solution Cell Proliferation MTS Assay (Promega, Madison Wis.) 96 hours after treatment. Relative cell viability was determined as percentage of untreated control. IC50 values were calculated using a four parameter logistic model #203 with XLfit v4. 2 (IDBS, Guildford, Surry, UK).

HT-29 cells = test: In vitro cell assay (MTS cell viability), HT-29 (target non-expressing); assay type: cell-based; details: free compounds, 96 hours after treatment, read-out: HT29 IC50
Protocol: as §1, §2

[2] = tested on: N87 (gastric cancer) cells; test: In vitro cell assay (MTS cell viability), N87; assay type: cell-based; details: free compounds, 96 hours after treatment
Protocol: as §1, §2

[3] = biological target: T1, tubulin/RB3-stathmin-like-domain (RB3-SLD-tdm) complex (Sus scrofa, UniProt P02550+P02554); test: Tubulin Peptide-Binding Site Competition Assay (fluorescence polarization); design: species or system Porcine; details: FP competition with BODIPY-labeled vinca peptide probe; read after five hours at 22° C.; read-out: Tubulin Peptide-Binding Site Competition Assay IC50
T1 construct: purchased Cytoskeleton, Inc. T240; host or cells: RB3-SLD was made in house in E. coli
Summary of the method: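 The BODIPY vinca-peptide probe was premixed with test compound and then added to porcine tubulin/RB3-SLD, at final concentrations of 3 nM probe, 6 nM tubulin and 100 nM RB3-SLD. The buffer was PIPES pH 7.0 with Tween 20, MgCl2 and EGTA, and 11-point dilutions were run in duplicate. IC50 was fitted from the fluorescence polarization decrease and converted to Ki.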

With `CC[C@H](C)[C@H](NC(=O)[C@H](NC)C(C)C)C(=O)N(C)[C@H](C[C@@H](OC(C)=O)c1nc(C(=O)N[C@@H](Cc2ccccc2)C[C@H](C)C(=O)O)cs1)C(C)C` [#B12, N-methyl-D-valyl-N-[(1R,3R)-1-(acetyloxy)-1-(4-{[(2R,4S)-4-carboxy-1-phenylpentan-2-yl]carbamoyl}-1,3-thiazol-2-yl)-4-methylpentan-3-yl]-N-methyl-L-isoleucinamide] the IC50 ([1]; 96 h) was 2.97 nM, the IC50 (HT-29 cells; Homo sapiens, HT-29, 96 h) was 4.52 nM and the IC50 ([2]; 96 h) was 2.98 nM. It also gave an IC50 [3] of less than 0.458 nM.

`CCOC(=O)[C@@H](C)C[C@H](Cc1ccccc1)NC(=O)c1csc([C@@H](C[C@H](C(C)C)N(C)C(=O)[C@@H](NC(=O)[C@@]2(C)CCCN2C)[C@@H](C)CC)NC(C)=O)n1` [#B18, 1,2-dimethyl-D-prolyl-N-[(1R,3R)-1-(acetylamino)-1-(4-{[(2R,4S)-5-ethoxy-4-methyl-5-oxo-1-phenylpentan-2-yl]carbamoyl}-1,3-thiazol-2-yl)-4-methylpentan-3-yl]-N-methyl-L-isoleucinamide] was tested, and the IC50 ([1]; 96 h) was greater than 100 nM, the IC50 (HT-29 cells; Homo sapiens, HT-29, 96 h) was greater than 100 nM and the IC50 ([2]; 96 h) was greater than 100 nM.

Work on `CC[C@H](C)[C@H](NC(=O)[C@@]1(C)CCCN1C)C(=O)N(C)[C@H](C[C@@H](OC(C)=O)c1nc(C(=O)N[C@@H](Cc2ccc(N)cc2)c2nccs2)cs1)C(C)C` [#B80, 1,2-dimethyl-D-prolyl-N-[(1R,3R)-1-(acetyloxy)-1-(4-{[(1S)-2-(4-aminophenyl)-1-(1,3-thiazol-2-yl)ethyl]carbamoyl}-1,3-thiazol-2-yl)-4-methylpentan-3-yl]-N-methyl-L-isoleucinamide] yielded an IC50 ([1]; 96 h) of 4.21 nM, an IC50 (HT-29 cells; Homo sapiens, HT-29, 96 h) of 4.63 nM and an IC50 ([2]; 96 h) of 18.5 nM. For the same compound, the IC50 [3] was 6.5 nM.

In the case of `CCNC(=O)N[C@H](C[C@H](C(C)C)N(C)C(=O)[C@@H](NC(=O)[C@@]1(C)CCCN1C)[C@@H](C)CC)c1nc(C(=O)N[C@@H](Cc2ccc(N)cc2)C[C@H](C)C(=O)O)cs1` [#B29, 1,2-dimethyl-D-prolyl-N-{(1R,3R)-1-(4-{[(2R,4S)-1-(4-aminophenyl)-4-carboxypentan-2-yl]carbamoyl}-1,3-thiazol-2-yl)-1-[(ethylcarbamoyl)amino]-4-methylpentan-3-yl}-N-methyl-L-isoleucinamide], the IC50 ([1]; 96 h) is reported as 24.9 nM, the IC50 (HT-29 cells; Homo sapiens, HT-29, 96 h) is reported as 24.5 nM and the IC50 ([2]; 96 h) is reported as 28.6 nM.

`CC[C@H](C)[C@H](NC(=O)[C@@]1(C)CCCN1C)C(=O)N(C)[C@H](C[C@@H](NC(C)=O)c1nc(C(=O)N[C@@H](Cc2ccc(N)cc2)C[C@H](C)C(=O)O)cs1)C(C)C` [#B28, 1,2-dimethyl-D-prolyl-N-[(1R,3R)-1-(acetylamino)-1-(4-{[(2R,4S)-1-(4-aminophenyl)-4-carboxypentan-2-yl]carbamoyl}-1,3-thiazol-2-yl)-4-methylpentan-3-yl]-N-methyl-L-isoleucinamide] showed an IC50 ([1]; 96 h) of 81.5 nM, an IC50 (HT-29 cells; Homo sapiens, HT-29, 96 h) of 74.9 nM and an IC50 ([2]; 96 h) greater than 100 nM.

With `CCNC(=O)O[C@H](C[C@H](C(C)C)N(C)C(=O)[C@@H](NC(=O)C1(C)CCCCN1C)[C@@H](C)CC)c1nc(C(=O)N[C@@H](Cc2ccc(N)cc2)C[C@H](C)C(=O)O)cs1` (stereo in doubt) [#B24, (2S,4R)-5-(4-aminophenyl)-4-{[(2-{(1R,3R)-3-[(N-{[(2R)-1,2-dimethylpiperidin-2-yl]carbonyl}-L-isoleucyl)(methyl)amino]-1-[(ethylcarbamoyl)oxy]-4-methylpentyl}-1,3-thiazol-4-yl)carbonyl]amino}-2-methylpentanoic acid] the IC50 [1] was 1.24 nM, the IC50 (HT-29 cells) was 1.14 nM and the IC50 [2] was 1.22 nM.

With `CC[C@H](C)[C@H](NC(=O)[C@]1(C)CCCCN1C)C(=O)N(C)[C@H](C[C@@H](OC(C)=O)c1nc(C(=O)N[C@@H](Cc2ccc(N)cc2)C[C@H](C)C(=O)O)cs1)C(C)C` [#B23, (2S,4R)-4-{[(2-{(1R,3R)-1-(acetyloxy)-3-[(N-{[(2S)-1,2-dimethylpiperidin-2-yl]carbonyl}-L-isoleucyl)(methyl)amino]-4-methylpentyl}-1,3-thiazol-4-yl)carbonyl]amino}-5-(4-aminophenyl)-2-methylpentanoic acid] the IC50 ([1]; 96 h) was 2.02 nM, the IC50 (HT-29 cells; Homo sapiens, HT-29, 96 h) was 2.33 nM and the IC50 ([2]; 96 h) was 2.71 nM.

Compound `CC[C@H](C)[C@H](NC(=O)[C@@]1(C)CCCN1C)C(=O)N(C)[C@H](C[C@H](O)c1nc(C(=O)N[C@@H](Cc2ccc(N)cc2)C[C@H](C)C(=O)O)cs1)C(C)C` [#B33, 1,2-dimethyl-D-prolyl-N-{(1S,3R)-1-(4-{[(2R,4S)-1-(4-aminophenyl)-4-carboxypentan-2-yl]carbamoyl}-1,3-thiazol-2-yl)-1-hydroxy-4-methylpentan-3-yl]-N-methyl-L-isoleucinamide] has an IC50 ([1]; 96 h) greater than 1000 nM, an IC50 (HT-29 cells; Homo sapiens, HT-29, 96 h) greater than 1000 nM and an IC50 ([2]; 96 h) greater than 1000 nM.

In the case of `CC[C@H](C)[C@H](NC(=O)[C@@]1(C)CCCN1C)C(=O)N(C)[C@H](C[C@@H](NC(C)=O)c1nc(C(=O)N[C@@H](Cc2ccccc2)C[C@H](C)C(=O)OC)cs1)C(C)C` [#B20, 1,2-dimethyl-D-prolyl-N-[(1R,3R)-1-(acetylamino)-1-(4-{[(2R,4S)-5-methoxy-4-methyl-5-oxo-1-phenylpentan-2-yl]carbamoyl}-1,3-thiazol-2-yl)-4-methylpentan-3-yl]-N-methyl-L-isoleucinamide], the IC50 ([1]; 96 h) is reported as 2.58 nM, the IC50 (HT-29 cells; Homo sapiens, HT-29, 96 h) is reported as 3.37 nM and the IC50 ([2]; 96 h) is reported as 6.11 nM.

Compound `CCNC(=O)O[C@H](C[C@H](C(C)C)N(C)C(=O)[C@@H](NC(=O)[C@]1(C)CCCCN1C)[C@@H](C)CC)c1nc(C(=O)N[C@@H](Cc2ccc(N)cc2)C[C@H](C)C(=O)O)cs1` [#B25, (2S,4R)-5-(4-aminophenyl)-4-{[(2-{(1R,3R)-3-[(N-{[(2S)-1,2-dimethylpiperidin-2-yl]carbonyl}-L-isoleucyl)(methyl)amino]-1-[(ethylcarbamoyl)oxy]-4-methylpentyl}-1,3-thiazol-4-yl)carbonyl]amino}-2-methylpentanoic acid] has an IC50 [1] of 4.62 nM, an IC50 (HT-29 cells) of 5.9 nM and an IC50 [2] of 6.3 nM.

`CCOP(=O)(OCC)[C@@H](C)C[C@H](Cc1ccc(N)cc1)NC(=O)c1csc([C@@H](C[C@H](C(C)C)N(C)C(=O)[C@@H](NC(=O)[C@H]2CCCCN2C)[C@@H](C)CC)OC(C)=O)n1` [#B11, (1R,3R)-1-(4-{[(2S,4S)-1-(4-aminophenyl)-4-(diethoxyphosphoryl)pentan-2-yl]carbamoyl}-1,3-thiazol-2-yl)-4-methyl-3-[methyl(N-{[(2R)-1-methylpiperidin-2-yl]carbonyl}-L-isoleucyl)amino]pentyl Acetate] showed an IC50 ([1]; 96 h) of 0.609 nM, an IC50 (HT-29 cells; Homo sapiens, HT-29, 96 h) of 0.954 nM and an IC50 ([2]; 96 h) of 0.909 nM.

With `CC[C@H](C)[C@H](NC(=O)[C@@]1(C)CCCN1C)C(=O)N(C)[C@H](C[C@@H](NC(C)=O)c1nc(C(=O)N[C@@H](Cc2ccccc2)C[C@H](C)C(=O)O)cs1)C(C)C` [#B19, 1,2-dimethyl-D-prolyl-N-[(1R,3R)-1-(acetylamino)-1-(4-{[(2R,4S)-4-carboxy-1-phenylpentan-2-yl]carbamoyl}-1,3-thiazol-2-yl)-4-methylpentan-3-yl]-N-methyl-L-isoleucinamide] the IC50 ([1]; 96 h) was 17.4 nM, the IC50 (HT-29 cells; Homo sapiens, HT-29, 96 h) was 14.6 nM and the IC50 ([2]; 96 h) was 37.7 nM.

`CCNC(=O)O[C@H](C[C@H](C(C)C)N(C)C(=O)[C@@H](NC(=O)[C@@]1(C)CCCN1C)[C@@H](C)CC)c1nc(C(=O)N[C@H](C(=O)OC)C(C)O)cs1` (stereo partly drawn) [#B22, 1,2-dimethyl-D-prolyl-N-{(1R,3R)-1-[(ethylcarbamoyl)oxy]-1-(4-{[(2S)-3-hydroxy-1-methoxy-1-oxobutan-2-yl]carbamoyl}-1,3-thiazol-2-yl)-4-methylpentan-3-yl]-N-methyl-L-isoleucinamide] showed an IC50 ([1]; 96 h) of 11.2 nM, an IC50 (HT-29 cells; Homo sapiens, HT-29, 96 h) of 14.4 nM and an IC50 ([2]; 96 h) of 12.1 nM.
